Our source for the melting point values is a melting point compilation (Tetko et al.; mined from patent text by program, amines drawn as free bases though some values may be those of a salt).

Where only a bound is given, the exact number is not on record here.

As usually defined, the melting point is the temperature, or range, at which the solid turns liquid. In turn, `Fc1cccc(F)c1C(C1=NOCCO1)N1CCc2sccc2C1` (stereo not drawn) registered a melting point of 151 to 153 °C.
The compound `O=C(O)CCCc1ccc(C(=O)CCCc2ccccc2)cc1` registered a melting point of 111 to 112 °C.
As for `CCOC(=O)CCc1cccc(C2COc3c(C)c(C)c(NC(=O)CC(C)(C)C)c(C)c32)c1` (stereo not drawn), the figure is 136 to 138 °C; as for `Cc1nc(-c2ncn3c2[C@@H]2CCCN2C(=O)c2c(Cl)cccc2-3)no1`, 205 to 206 °C.
As for `CCS(=O)(=O)Nc1cc(C2CCCCC2)cc2c1CCCC2c1c[nH]cn1` (stereo not drawn), the melting point fell in the range of 207 to 209 °C.
As for `O=C(O)Cc1ccc(OCCNC(=O)C2Cc3ccccc3N2S(=O)(=O)c2ccc(-c3cc(C(F)(F)F)ccc3Cl)cc2)cc1F` (stereo not drawn), the figure is 105 °C.
Compound `CC(C)n1nc(C(=O)NCC2CCN(CC(=O)Nc3ccc(OCc4ccccc4)cc3)CC2)c2ccccc21` yielded a melting point of 113 to 115 °C.
As for `O=Cc1c(Cl)[nH]c2ccccc12`, the figure is 227 °C; as for `O=C(c1ccc(Cl)cc1)c1ccc2[nH]c(=O)cc(-c3cccc(Cl)c3)c2c1`, 235 °C.
Turning to `COC(=O)c1cc2c(C)ccc(Cl)c2[nH]1`, the melting point lay in the range of 133 to 134 °C.
As to `CCOC(=O)C1=C(C(F)(F)F)NC(N)(C(F)(F)F)C(C(=O)OCC)S1` (stereo not drawn), the melting point was 87.5 to 89 °C.
Next, `COc1ccc(C2NC(=O)C(C)S2)cc1OC` (stereo not drawn): 151 to 152 °C; `CCc1cc(C(=O)c2ccccc2Cl)c(-n2c(C)nnc2CNC(=O)c2cccc(C(=O)O)c2)s1`: 133 to 136 °C; `COc1cc2c(cc1Br)CCOC2c1ccc([N+](=O)[O-])cc1` (stereo not drawn): 144 to 147 °C.
In the case of `CC(C)(C)c1ccc(C[C@@H](NC(=O)c2ccc(F)c3ccccc23)[C@@H](O)c2ccc(F)cc2)cc1` (racemic), the melting point lay within 149 to 150 °C.
Compound `FC(F)(F)c1cc(CO[C@H]2CCCN(Cc3nsc(I)n3)[C@H]2c2ccccc2)cc(C(F)(F)F)c1` displayed a melting point of 98 to 101 °C.
Next, `N#Cc1cc(C=C2SC(=S)NC2=O)cc(O)c1O`: more than 350 °C.
Compound `Cc1oc(-c2ccccc2Cl)nc1CCOc1ccc(CC2SC(=O)NC2=O)cn1` (stereo not drawn) registered a melting point of 176 to 177 °C.
Next, `COc1ccccc1-c1ccn(C(C)C(=O)N(C)C)n1` (stereo not drawn): 92 to 94 °C; `O=c1ccc(S(=O)(=O)c2cc3cc(Cl)ccc3o2)n[nH]1`: 246 to 247 °C; `Nc1cc(OCC(O)CO)nc(N)n1` (stereo not drawn): 160 °C.
As for `CCCCOC1C=CC(=O)N1S(=O)(=O)c1cccs1` (stereo not drawn), the figure is 56 to 57 °C.
As for `COc1cc(-c2n[nH]c3c2Cc2ccccc2-3)cc(OC)c1OC`, the figure is 185 to 187 °C; as for `CC(C)(O)CCCCCc1cccc(CCc2cc(O)cc(O)c2)c1`, 102 to 103 °C; as for `CCCc1c(C(C)=O)ccc(OCc2nc3nccnc3c(=O)[nH]2)c1O`, 224 to 226 °C.
Take `CCC(O)=C1SC(=S)N(c2ccccc2)C1=O`: the melting point fell in the range of 105 to 111 °C.
As for `CC(=O)NC[C@H]1CN(c2ccc(N3CCC(O)(COS(C)(=O)=O)CC3)c(F)c2)C(=O)O1`, the figure is 136 to 138 °C.
With `N=C(N)c1ccc(-n2ncn(-c3ccc(CCC(=O)O)cc3)c2=O)cc1`, the melting point is 310 to 313 °C.
`CCCCCCCCCCCc1coc(NC(=O)Nc2c(C(C)C)cccc2C(C)C)n1` yielded a melting point of 104 to 108 °C.
Next, `CCOC(=O)c1cc2ccccc2n1CC#N`: 65 to 67 °C.
`CCCCc1ncc(CNC(C)(Cc2cccs2)C(=O)O)n1Cc1ccccc1Cl` (stereo not drawn): the melting point fell in the range of 109 to 112 °C.
As to `CC(C)C(OC(=O)NC(C)(Cc1ccccc1)C(=O)NC(CO)c1ccccc1)c1ccccc1` (stereo not drawn), the melting point fell in the range of 124 to 130 °C.
The compound `Cc1cccc(C(=O)O)c1Cl` yielded a melting point of 141 to 142 °C.
Next, `O=C1COc2cc(F)c([N+](=O)[O-])cc2N1`: 200 to 202 °C; `Cc1ccc2cccc(OCc3c(Cl)ccc(S(=O)(=O)N(C)Cc4ccccc4)c3Cl)c2n1`: 154 °C.
Next, `O=C1O[C@@H](Cn2ccnn2)CN1c1ccc(-c2ccc(CO)nc2)c(F)c1`: 177 °C; `COc1ccc2[nH]c([S+]([O-])Cc3ncc(C)c(OC)c3C)nc2n1` (stereo not drawn): 224 to 226 °C; `C=CCc1cc(C)c2c(c1O)C(C)(C)C(=O)N2Cc1ccccc1`: 161 to 162 °C.
As for `CC1(C2OCCO2)C=CC(C#N)=CC1` (stereo not drawn), the figure is 70 °C; as for `O=C(Nc1ncnc2c1ncn2C[C@@H]1O[C@H](CO)[C@@H](O)[C@H]1O)c1ccccc1`, 85 to 90 °C.
Take `CC(C)(C)c1ccc(-c2cc(-c3cccs3)[nH]n2)cc1`: the melting point fell in the range of 61 to 65 °C.
Next, `O=C(CCl)Nc1cc2c(Nc3cc(Cl)c(Cl)cc3F)ncnc2cc1OCCOCCF`: 167 to 169 °C.
Next, `O=[N+]([O-])c1ccc(N=Nc2cc(OCCO)c(N(CCCO)CCCO)cc2OCCO)cc1`: 132 to 134 °C; `C=CS(=O)CCNC(=O)CCS(=O)(=O)C=C` (stereo not drawn): 93 °C; `N#Cc1cc(-c2cccc(F)c2)c[nH]c1=O`: 261 to 266 °C.
Next, `CCOC(=O)c1cc(CCCOCCCCCCNCC(O)c2cc(Cl)c(N)c(Cl)c2)ccn1` (stereo not drawn): 68 to 70 °C; `CCOC(=O)CNc1ncccc1NC(=O)c1ccccc1`: 115 to 116 °C; `OC(c1ccc(F)cc1)C1(n2cncn2)CC1` (stereo not drawn): 104 to 106 °C.
For `Cc1ccccc1-c1ccc(C(=O)N2Cc3ccc(C(=O)NCCc4ccc(O)cc4)n3Cc3ccccc32)cc1C`, the melting point is 129 to 131 °C.
Next, `CNC(=O)C(Cc1ccc(OC)cc1)NC(=O)C(CC(C)C)C(CC(=O)NCC(=O)O)SC(C)=O` (stereo not drawn): 188 to 192 °C.
Compound `CCCn1c(=O)c2[nH]c(C(CC)Cc3ccccc3)nc2n(CCC)c1=O` (stereo not drawn) registered a melting point of 180 °C.
As for `O=C(O)COCC(Cc1ccccc1)NC(=O)OCc1ccccc1` (stereo not drawn), the figure is 96 to 100 °C; as for `CCn1c(=O)c2c(nc(/C=C/c3cc4c(c(OC(C)=O)c3)OCO4)n2C)n(CC)c1=O`, more than 270 °C.
Next, `Cc1ccc2c(N)nc(-c3cccc4ccccc34)cc2c1`: 170 °C; `O=C(O)CCCCc1cc2nc(Cl)ccc2n1S(=O)(=O)c1ccc2ncsc2c1`: 169 °C.
`COc1ccc(C(=O)Nc2c(Cl)cncc2Cl)nc1OC1CCCC1` came in with a melting point of 164 to 166 °C.
Next, `C=C(C)C=CCC(C)C1CCC2(C)C1(C)CCC1C3(C)CCC(OC(C)=O)CC3CCC12C` (stereo not drawn): 120 to 125 °C; `Cn1c2ccccc2c(=O)c2c(-c3cccc(O)c3)c(Cl)cc(Cl)c21`: 220 to 222 °C; `c1ccc(CN2CC3OC(c4ccccc4)(C2)c2ccccc23)cc1` (stereo not drawn): 100 to 101 °C.
As for `CONS(=O)(=O)c1cccc([N+](=O)[O-])c1`, the melting point lay within 111 to 113 °C.
As for `COC(=O)C1Cc2c(OC)cccc2N1S(=O)(=O)c1ccc(-c2ccc(F)cc2F)cc1` (stereo not drawn), the figure is 162 °C.
`Cn1cc(C2=C(c3ccccc3OCC3COC(C)(C)O3)C(=O)NC2=O)c2ccccc21` (racemic): the melting point is 221 °C.
For `Cc1[nH]c2ccccc2c1CC(=O)N1CCN(C(c2ccc(F)cc2)c2ccc(F)cc2)CC1`, the melting point fell in the range of 93 to 103 °C.
As to `CCCc1cc(-c2ccc(Cl)cc2)nc2c(I)cnn12`, the melting point fell in the range of 108 to 110 °C.
In turn, `CCOC(=O)C(Cc1ccccc1CCCBr)(NC(C)=O)C(=O)OCC` gave a melting point of 73 to 74.5 °C.
`CC(C)(C)OC(=O)NCc1ccc2c(c1)CNC2` showed a melting point of 114 to 115 °C.
As for `O=C(Nc1ccc([N+](=O)[O-])cc1)C(=O)N1CCC(Cc2ccccc2)CC1`, the figure is 162 to 165 °C; as for `COC(=O)c1nsnc1N`, 142 to 143 °C; as for `O[C@@H]1CNCC[C@H]1Oc1ccc(F)cc1` (relative stereo), 121 to 123 °C.
Next, `CCc1ccc(OCC(O)CN2CCC3(CC2)CSC2=C(O3)c3ccccc3C(=O)C2=O)cc1` (stereo not drawn): 137 to 138 °C; `CCCn1c(=O)cc(N)n(-c2ccccc2C)c1=O`: 226 to 228 °C.
In the case of `Cc1cc(C)nc(NC(=O)NS(=O)(=O)c2sccc2-c2ccon2)n1`, the melting point lay in the range of 172 to 173 °C.
As for `O=C(O)CC[C@@H](Cc1cn(Cc2ccccc2)c2ccccc12)NC(=O)CCCCCCc1ccccc1`, the figure is 130 to 132 °C; as for `CCOC(=O)c1cnn(-c2cccc(S(=O)(=O)N(C)C)n2)c1N`, 197 to 198 °C; as for `O=C1NC(C(=O)NCCO[N+](=O)[O-])C(c2ccco2)S1` (stereo not drawn), 117 to 118 °C.
As for `COc1cc(Nc2c(C#N)cnc3cc(-c4ccc(CN5CCOCC5)cc4)sc23)c(Cl)cc1Cl`, the figure is 244 to 245 °C; as for `COC(=O)c1c(Cc2ccc(C(=O)NC(C)(C)CC(=O)N(C)C)cc2)c(=O)c2ccc(Cl)cc2n1-c1ccccc1`, 84.1 to 95.5 °C.
As for `NC(=O)c1sc2nccc(N3CCCN(c4ccccc4Cl)CC3)c2c1N`, the figure is 206 to 210 °C; as for `O=C(NCc1ccccc1)c1ccnc(-n2ccc(O)cc2=O)c1`, 102 to 105 °C.
In turn, `CC(c1oc2ccccc2c(=O)c1-c1cccc(F)c1)n1nc(-c2cccc3[nH]ncc23)c2c(N)ncnc21` (stereo not drawn) had a melting point of 231 to 233 °C.
As for `Cc1ccc(N2C(=O)NC(=O)C23CCNCC3)cc1`, the figure is 128 to 130 °C; as for `CN1C(=O)C(N)N=C(c2ccccc2)c2ccncc21` (stereo not drawn), 94 to 118 °C.
Next, `Cc1c(Cl)nc(=O)n(C)c1N`: 254 to 256 °C.
With `COc1ccc(NC(=O)c2ccc(-c3ccc(-c4noc(C)n4)cc3)cc2)cc1N1CCN(C)CC1`, the melting point was 135 to 137 °C.
Regarding `C#CCCCCCCCCC(=O)N[C@H]1CCCNC(=O)C1`, the melting point was 73 to 75 °C.
Next, `Cc1ncc(C(=O)N2CCCC2)s1`: 71 to 72 °C.
`O=c1cc(-c2ccncn2)nc2n1CCCN2`: the melting point was 268 to 272 °C.
As for `COC(=O)c1ccc(O)c(C23CC4CC(CC(C4)C2)C3)c1`, the melting point was in the range of 183 to 184 °C.
